From patent US20260130395A1, “Water Dispersible Botanical Compositions” (Aquila Black Limited, priority 2021, published 2026)

Tests used:
[1] = Stability of cannabinoid entourage and Vitamin E components of the powder concentrate by LCMSMS; type: physicochemical; conditions: powder stored at 21-25° C.
Description: At each time period, 0.05 g of powder was dissolved in 10 ml-15 of ethanol, diluted to fall within the analytical range, and injected into the LCMSMS for analysis.

[2] = Stability of cannabinoid compounds and Vitamin E components in Beverage 1 (AB White) by LCMSMS; type: physicochemical; conditions: AB White stored at 8° C.

With `CCCCCc1cc2c(c(O)c1C(=O)O)[C@@H]1C=C(C)CC[C@H]1C(C)(C)O2` [D9 THCA, delta-9-tetrahydrocannabinolic acid] the “Stability of Plant-Derived Cannabinoid Compounds in Powder Concentrate” value (“Stability … in Powder Concentrate” for short) ([1]; 0 days) was 0.150 mg/g powder, the “Stability … in Powder Concentrate” value ([1]; 1 days) was 0.150 mg/g powder and the “Stability … in Powder Concentrate” value ([1]; 2 days) was 0.147 mg/g powder. For the same compound, the “Stability … in Powder Concentrate” value ([1]; 3 days) was 0.150 mg/g powder, the “Stability … in Powder Concentrate” value ([1]; 5 days) was 0.146 mg/g powder and the “Stability … in Powder Concentrate” value ([1]; 8 days) was 0.156 mg/g powder. The “Stability … in Powder Concentrate” value ([1]; 9 days) was 0.151 mg/g powder, the “Stability … in Powder Concentrate” value ([1]; 10 days) was 0.148 mg/g powder and the “Stability … in Powder Concentrate” value ([1]; 11 days) was 0.145 mg/g powder. For the same compound, the “Stability … in Powder Concentrate” value ([1]; 12 days) was 0.152 mg/g powder, the “Stability … in Powder Concentrate” value ([1]; 15 days) was 0.151 mg/g powder and the “Stability … in Powder Concentrate” value ([1]; 16 days) was 0.157 mg/g powder. For the same compound, the “Stability … in Powder Concentrate” value ([1]; 17 days) was 0.156 mg/g powder, the “Stability … in Powder Concentrate” value ([1]; 18 days) was 0.149 mg/g powder and the “Stability … in Powder Concentrate” value ([1]; 19 days) was 0.146 mg/g powder. For the same compound, the “Stability … in Powder Concentrate” value ([1]; 22 days) was 0.150 mg/g powder, the “Stability … in Powder Concentrate” value ([1]; 23 days) was 0.147 mg/g powder and the “Stability … in Powder Concentrate” value ([1]; 24 days) was 0.150 mg/g powder. For the same compound, the “Stability … in Powder Concentrate” value ([1]; 25 days) was 0.150 mg/g powder, the “Stability … in Powder Concentrate” value ([1]; 26 days) was 0.150 mg/g powder and the “Stability … in Powder Concentrate” value ([1]; 29 days) was 0.152 mg/g powder. The “Stability … in Powder Concentrate” value ([1]; 30 days) was 0.151 mg/g powder, the “Stability … in Powder Concentrate” value ([1]; 60 days) was 0.146 mg/g powder and the “Stability … in Powder Concentrate” value ([1]; 90 days) was 0.147 mg/g powder. For the same compound, the “Stability … in Powder Concentrate” value ([1]; 120 days) was 0.147 mg/g powder, the “Stability … in Powder Concentrate” value ([1]; 150 days) was 0.153 mg/g powder and the “Stability … in Powder Concentrate” value ([1]; 180 days) was 0.154 mg/g powder. The “Stability … in Powder Concentrate” value ([1]; 210 days) was 0.151 mg/g powder, the “Stability … in Powder Concentrate” value ([1]; 240 days) was 0.148 mg/g powder and the “Stability … in Powder Concentrate” value ([1]; 270 days) was 0.148 mg/g powder. The “Stability … in Powder Concentrate” value ([1]; 300 days) was 0.156 mg/g powder, the “Stability … in Powder Concentrate” value ([1]; 330 days) was 0.156 mg/g powder and the “Stability … in Powder Concentrate” value ([1]; 360 days) was 0.155 mg/g powder. For the same compound, the “Stability … in Powder Concentrate” value ([1]; 390 days) was 0.153 mg/g powder, the “Stability … in Powder Concentrate” value ([1]; 420 days) was 0.154 mg/g powder and the “Stability … in Powder Concentrate” value ([1]; 450 days) was 0.155 mg/g powder. The “Stability … in Powder Concentrate” value ([1]; 480 days) was 0.149 mg/g powder, the “Stability … in Powder Concentrate” value ([1]; 510 days) was 0.154 mg/g powder and the “Stability … in Powder Concentrate” value ([1]; 540 days) was 0.154 mg/g powder. For the same compound, the “Stability … in Powder Concentrate” value ([1]; 570 days) was 0.148 mg/g powder, the “Stability of Plant-Derived Cannabinoid Compounds in AB White, 8° C.” value (from here on “Stability … 8° C.”) ([2]; 0 days) was 0.950 µg/mL and the “Stability … 8° C.” value ([2]; 1 days) was 0.956 µg/mL. For the same compound, the “Stability … 8° C.” value ([2]; 2 days) was 0.954 µg/mL, the “Stability … 8° C.” value ([2]; 3 days) was 0.934 µg/mL and the “Stability … 8° C.” value ([2]; 5 days) was 0.956 µg/mL. For the same compound, the “Stability … 8° C.” value ([2]; 8 days) was 0.949 µg/mL, the “Stability … 8° C.” value ([2]; 9 days) was 0.937 µg/mL and the “Stability … 8° C.” value ([2]; 10 days) was 0.960 µg/mL. The “Stability … 8° C.” value ([2]; 11 days) was 0.929 µg/mL, the “Stability … 8° C.” value ([2]; 12 days) was 0.942 µg/mL and the “Stability … 8° C.” value ([2]; 15 days) was 0.944 µg/mL. For the same compound, the “Stability … 8° C.” value ([2]; 16 days) was 0.932 µg/mL, the “Stability … 8° C.” value ([2]; 17 days) was 0.951 µg/mL and the “Stability … 8° C.” value ([2]; 18 days) was 0.950 µg/mL. For the same compound, the “Stability … 8° C.” value ([2]; 19 days) was 0.959 µg/mL, the “Stability … 8° C.” value ([2]; 22 days) was 0.960 µg/mL and the “Stability … 8° C.” value ([2]; 23 days) was 0.931 µg/mL. For the same compound, the “Stability … 8° C.” value ([2]; 24 days) was 0.926 µg/mL, the “Stability … 8° C.” value ([2]; 25 days) was 0.957 µg/mL and the “Stability … 8° C.” value ([2]; 26 days) was 0.956 µg/mL.
